Measurements from paper PMC12079444, “Antagonist Targeting the Species‐Specific Fatty Acid Dehydrogenase/Isomerase FabX for Anti‐H. pylori Infection” (Advanced Science, 2025).
Converted amounts (≈) assume the structure as drawn. Read-outs that look alike come from different tables or passages of the source.

What was measured:
FabX [1] = molecular target: T1, FabX (Helicobacter pylori, UniProt O25465); experiment: FabX-FabI coupled assay, NADH absorbance […] nm; type: biochemical
T1 construct: gene HP_0773; recombinant from pQE2 vector in E. coli BL21(DE3) Rosetta, Ni-NTA, HiTrap-SP, Superdex75; FMN and [4Fe-4S] cofactors
T1 sequence (O25465 1-363): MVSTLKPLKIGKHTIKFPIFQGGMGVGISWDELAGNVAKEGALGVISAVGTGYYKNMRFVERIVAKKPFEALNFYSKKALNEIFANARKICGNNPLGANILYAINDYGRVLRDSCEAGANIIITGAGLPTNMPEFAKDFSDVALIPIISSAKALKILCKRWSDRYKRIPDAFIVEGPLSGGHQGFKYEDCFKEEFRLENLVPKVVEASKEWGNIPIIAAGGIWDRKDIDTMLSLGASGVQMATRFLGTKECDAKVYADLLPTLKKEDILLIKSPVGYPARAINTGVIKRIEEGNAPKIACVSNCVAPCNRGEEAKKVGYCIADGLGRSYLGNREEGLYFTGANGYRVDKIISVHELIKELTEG

FabX [2] = molecular target: T1, FabX; experiment: biochemical; design: FabX-FabI enzyme-coupled assay, NADH consumption read-out of FabX inhibition; details: for inhibition at 1 µM: read-out: Inhibition (%) 1 μM; for inhibition at 10 µM: read-out: Inhibition (%) 10 μM
Description: To discover small molecule inhibitors targeting FabX, we performed protein thermal shift assay (PTSA) based high‐throughput screening against an in‐house chemical library of 11000 small molecule compounds, and established a multienzymatic cascade reaction system by incorporating the enoyl acyl carrier protein reductase FabI from H. pylori into the hit validation system, where FabI catalyzes the reduction of FabX catalytic product enoyl‐ACP in the fourth step of the elongation cycle, accompanying the elimination of NADH (Figure 2A,B). […] Subsequently, the inhibitory activities of these derivatives at 10 × 10^−6 and 1 × 10^−6 M were evaluated, and the structure–activity relationship (SAR) was analyzed (Figure S2, Supporting Information). In the first round of SAR, we briefly examined the influence of the substituents’ positions (C3 and C4), the electronic effects, and the polarity in the A moiety. We synthesized compounds 1a‐1l and evaluated their enzymatic activities (Table S1, Supporting Information). […] In particular, 3‐CN (1e) and 3‐COOH (1i) enhanced the inhibitory activity. We speculate that these two groups may act as hydrogen bond acceptors, forming hydrogen bonds with FabX and enhancing the interaction. We then retained the 3‐CN group in the A moiety and optimized the B moiety to investigate the 2,4‐disubstitution by synthesizing 8a‐8c (Figure 3). […] [picture] Figure S1. Schematic diagram of Type-II fatty acid biosynthesis pathway (FAS-II) in Helicobacter pylori. FabX (red sphere) catalyzes the dehydrogenation and isomerization of the saturated acyl group on ACP (the fifth step in the elongation cycle) for cis-double bond introduction and UFA synthesis. The black and blue curves indicate the SFA and UFA synthesis processes, respectively, while the blue dashes indicate the absence of the conventional fabA gene in the genome of H. pylori. [picture] Figure S2. Bioactivity evaluation of FBX-1 derivatives at 10 μM and 1 μM in the FabX-FabI enzyme-coupled assay. [picture] Figure S3. Overexpression of FabX in strain BHKS211. BHKS210 (NSH57/Vec) and BHKS211 (NSH57/fabX) were cultured in BHI broth supplemented with 10% FCS to an OD600 of 0.3 and then harvested. RNA isolation, reverse transcription, and real-time PCR were performed as described in the EXPERIMENTAL METHODS section. The relative levels of fabX expression in BHKS211 compared to the control strain BHKS210 are represented. The data are the averages ± standard deviations from three independent experiments.

FabX [3] = molecular target: T1, FabX; experiment: biochemical; design: FabX inhibition in multienzymatic cascade coupled to FabI, NADH consumption read-out; details: read-out: % inhibition
Description: To discover small molecule inhibitors targeting FabX, we performed protein thermal shift assay (PTSA) based high‐throughput screening against an in‐house chemical library of 11000 small molecule compounds, and established a multienzymatic cascade reaction system by incorporating the enoyl acyl carrier protein reductase FabI from H. pylori into the hit validation system, where FabI catalyzes the reduction of FabX catalytic product enoyl‐ACP in the fourth step of the elongation cycle, accompanying the elimination of NADH (Figure 2A,B). […] The subcloning, expression, and purification of FabX, FabI, and ACP from H. pylori, FabK from S. pneumoniae, and FabA from E. coli were described previously.^[ [19] ^] Briefly, fabX, fabI, fabK, and fabA genes were subcloned to pQE2 vector, while the Acp gene was subcloned to pET32a vector, respectively. The proteins were expressed in BL21(DE3) Rosetta cells, purified by using Ni‐NTA affinity column, HiTrap‐SP column, GE HiLoad 16/600 Superdex75 prep grade gel‐filtration column. The peaks from the gel‐filtration column were further pooled, concentrated, and the final concentration of the proteins was quantified by the Bradford reagent purchased from Bio‐Rad.

Helicobacter pylori G27 = test system: T2, Helicobacter pylori G27; experiment: microbe, parasite or virus in culture; details: G27, read-out: MIC
T2 construct: G27
Experimental: (§1) The sensitivity of H. pylori strains to various compounds was assessed by determining the MIC and evaluating the growth of the strains on the drug‐containing agar media. The MIC was measured using the broth microdilution assay as described previously.^[ [27] ^] Twofold serial dilutions of the test compounds were prepared using BHI broth supplemented with 10% FCS in 96‐well microtiter plates. Diluted H. pylori cultures, adjusted to a final concentration of 5 × 10^5 CFU mL^−1, were then added to each well. The cultures were incubated for 48–72 h in a microaerobic environment at 37 °C. The MIC was determined by visual inspection. H. pylori strains used in this study were cultured on brain heart infusion (BHI) broth (Oxoid, UK) or Columbia blood agar medium (Oxoid, UK) supplemented with 10% fetal calf serum (FCS). The cultures were incubated at 37 °C for 48–72 h under microaerobic environments in a double‐gas CO2 incubator (Binder, Germany). The wild‐type strains G27 and NSH57 used in this study were kindly provided by Prof. Nina R. Salama from the Fred Hutchinson Cancer Research Center (USA). Three clinical H. pylori strains (BYES129, BY924, and JIGC0009) were isolated from biopsy samples from three patients with gastritis or gastric cancer using standard protocols. Strains BHKS551 (NSH57 IR0203::fabA ΔfabX) and BHKS568 (NSH57 IR0203::fabX ΔfabX) were described previously.^[ [19] ^] The following 15 reference strains of different species were also used: Escherichia coli ATCC 25922, Klebsiella pneumoniae ATCC 35657, Pseudomonas aeruginosa PAO1, Salmonella enterica serovar Typhimurium ATCC 14028, Shigella dysenteriae Sd197, Acinetobacter baumannii ATCC 19606, Proteus mirabilis ATCC 29906, Enterobacter cloacae ATCC 13047, Stenotrophomonas maltophilia ATCC 51331, Bacillus subtilis 168, Enterococcus faecium ATCC 19434, Staphylococcus aureus ATCC 25923, Staphylococcus haemolyticus ATCC 29970, Listeria monocytogenes EGDe, and Morganella morganii ATCC 25830. These non‐Helicobacter bacterial strains were cultured as described previously.^[ [25] ^] We evaluated the antibacterial activities of selected compounds (IC 50 < 1 × 10^−6 M) against several H. pylori strains (Table S3∖, Supporting Information), particularly against strains BHKS551 and BHKS211 (the FabX overexpressed strain, hereinafter referred to as FabX^OE) to validate the on‐target effect in vivo. Note that FabX is overproduced 3.32‐fold in strain BHKS211 compared to the control strain BHKS210 carrying the empty vector (Figure S3, Supporting Information). […] This could be due to the fact that the carboxyl group of 8j readily deprotonates and acquires negative charge at physiological pH, which reduces its lipophilicity and prevents it from permeating the bacterial cell membrane. To address this issue, we employed a prodrug strategy and synthesized esters from 8j by attaching it to lipophilic alcohols (8p‐8u) or a lipophilic cation 6‐hydroxyhexyltriphenylphosphonium bromide (8v) (Figure 3). […] Compounds 8p‐8s were synthesized as shown in Scheme 1, while compounds 8t‐8v were synthesized as described in Scheme 3 . 8q was hydrolyzed with NaOH to yield 8j, which was subsequently reacted with various alcohols by Steglich esterification to produce compounds 8t‐8v.

[4] = test system: T3, Helicobacter pylori BHKS 210; experiment: microbe, parasite or virus in culture; details: BHKS210, read-out: MIC
T3 construct: BHKS210 (NSH57/empty vector pTM117) wild-type NSH57 with empty vector
Experimental: as §1

[5] = test system: T4, Helicobacter pylori Hp129; experiment: microbe, parasite or virus in culture; details: HP129, read-out: MIC
T4 construct: Hp129
Experimental: as §1

[6] = test system: T5, Helicobacter pylori BHKS 568; experiment: microbe, parasite or virus in culture; details: BHKS568, read-out: MIC
T5 construct: BHKS568 (NSH57 IR0203::fabX ΔfabX) native fabX relocated to IR0203
Experimental: as §1

FabX [7] = molecular target: T1, FabX; experiment: FabX-FabI coupled assay, NADH absorbance […] nm; type: biochemical; details: read-out: FabX enzymatic activity / 10 × 10^-6 M [%]

| Structure (SMILES) | IC50 (FabX [1]) | inhibition at 1 µM (FabX [2]) | inhibition at 10 µM (FabX [2]) | also measured |
| --- | --- | --- | --- | --- |
| O=S(=O)(Nc1cccc(-c2nnn[nH]2)c1)c1cccnc1Nc1ccc(Cl)cc1Cl [8l] | 904 ± 177 nM | – | – | – |
| N#Cc1cccc(NS(=O)(=O)c2cccnc2Nc2ccc(Cl)cc2)c1 [1e] | – | 31% | 88% | – |
| COC(=O)c1cccc(NS(=O)(=O)c2cccnc2Nc2ccc(Cl)cc2Cl)c1 [8p, FBX-1991] | 158 ± 30 nM | – | – | inhibition at 1 µM (FabX [3]): 83%; inhibition at 10 µM (FabX [3]): 98%; MIC (Helicobacter pylori G27): 16 µg/mL (≈ 35.4 µM); MIC [4]: 16 µg/mL (≈ 35.4 µM); MIC [5]: 16 µg/mL (≈ 35.4 µM); MIC [6]: 16 µg/mL (≈ 35.4 µM) |
| N#Cc1cccc(NS(=O)(=O)c2ccncc2Nc2ccc(Cl)cc2Cl)c1 [11a, N-(3-cyanophenyl)-3-((2,4-dichlorophenyl)amino)pyridine-4-sulfonamide] | – | 100% | 100% | IC50 (FabX [2]): 480 ± 61 nM |
| COc1ccc(NS(=O)(=O)c2cccnc2Nc2ccc(Cl)cc2)cc1 [1f] | – | – | 23% | – |
| COc1cccc(NS(=O)(=O)c2cccnc2Nc2ccc(Cl)cc2)c1 [1g] | – | – | 21% | – |
| O=C(OCCCCCC[P+](c1ccccc1)(c1ccccc1)c1ccccc1)c1cccc(NS(=O)(=O)c2cccnc2Nc2ccc(Cl)cc2Cl)c1 [8v] | – | – | – | inhibition at 10 µM (FabX [7]): 42%; MIC (Helicobacter pylori G27): 32 µg/mL; MIC [4]: 16 µg/mL; MIC [6]: 16 µg/mL |
| O=S(=O)(Nc1cccc(O)c1)c1cccnc1Nc1ccc(Cl)cc1Cl [8n] | 945 ± 111 nM | – | – | – |
| O=S(=O)(NCc1ccccc1)c1cccnc1Nc1ccc(Cl)cc1 [1l] | – | 12% | 25% | – |
| N#Cc1cccc(NS(=O)(=O)c2cccnc2Nc2ccc(Cl)cc2Cl)c1 [8c] | 625 ± 82 nM | 77% | 100% | – |
| C#Cc1cccc(NS(=O)(=O)c2cccnc2Nc2ccc(Cl)cc2)c1 [1j] | – | – | 63% | – |
| CC(C)(C)OC(=O)c1cccc(NS(=O)(=O)c2cccnc2Nc2ccc(Cl)cc2Cl)c1 [8s] | – | – | – | inhibition at 10 µM (FabX [7]): 10%; MIC (Helicobacter pylori G27): 64 µg/mL (≈ 129 µM); MIC [4]: 32 µg/mL (≈ 64.7 µM); MIC [5]: 32 µg/mL (≈ 64.7 µM); MIC [6]: 32 µg/mL (≈ 64.7 µM) |
| N#Cc1cccc(NS(=O)(=O)c2ncccc2Nc2ccc(Cl)cc2Cl)c1 [11c, N-(3-cyanophenyl)-3-((2,4-dichlorophenyl)amino)pyridine-2-sulfonamide] | – | 17% | 60% | – |
| N#Cc1ccc(NS(=O)(=O)c2cccnc2Nc2ccc(Cl)cc2)cc1 [1d, 2-((4-chlorophenyl)amino)-N-(4-cyanophenyl)pyridine-3-sulfonamide] | – | – | 12% | – |
| CCOC(=O)c1cccc(NS(=O)(=O)c2cccnc2Nc2ccc(Cl)cc2Cl)c1 [8q] | 552 ± 118 nM | – | – | inhibition at 1 µM (FabX [3]): 60%; inhibition at 10 µM (FabX [3]): 100%; MIC (Helicobacter pylori G27): 16 µg/mL (≈ 34.3 µM); MIC [4]: 32 µg/mL (≈ 68.6 µM); MIC [5]: 16 µg/mL (≈ 34.3 µM); MIC [6]: 16 µg/mL (≈ 34.3 µM) |
| O=c1[nH]c(-c2cccc(NS(=O)(=O)c3cccnc3Nc3ccc(Cl)cc3Cl)c2)no1 [8k] | 665 ± 85 nM | – | – | – |
| O=S(=O)(Nc1cccc(I)c1)c1cccnc1Nc1ccc(Cl)cc1 [1c, 2-((4-chlorophenyl)amino)-N-(3-iodophenyl)pyridine-3-sulfonamide] | – | – | 23% | – |
| CCOC(=O)c1cccc(NS(=O)(=O)c2cccnc2Nc2ccc(Cl)cc2)c1 [1h] | – | – | 35% | – |
| N#Cc1cccc(NS(=O)(=O)c2ccccc2Nc2ccc(Cl)cc2Cl)c1 [11d, N-(3-cyanophenyl)-2-((2,4-dichlorophenyl)amino)benzenesulfonamide] | – | 60% | 94% | IC50 (FabX [2]): 2380 ± 225 nM |
| O=S(=O)(Nc1ccc(F)cc1)c1cccnc1Nc1ccc(Cl)cc1 [FBX-1] | 9700 ± 1000 nM | – | – | – |
| O=C(O)c1cccc(NS(=O)(=O)c2cccnc2Nc2ccc(Cl)cc2)c1 [1i] | – | 19% | 65% | – |
| O=S(=O)(Nc1ccc(F)nc1)c1cccnc1Nc1ccc(Cl)cc1 [1k] | – | – | 12% | – |
| O=C1COc2ccc(NS(=O)(=O)c3cccnc3Nc3ccc(Cl)cc3Cl)cc2N1 [8m] | 249 ± 38 nM | – | – | – |
